According to patent US20200131144A1, “AMINE OR (THIO)AMIDE CONTAINING LXR MODULATORS” (Phenex-FXR GmbH, priority 2017, published 2020):

Legend:
[1] = Pharmacokinetics in mice after single oral dosing, blood and liver exposure by LC-MS; assay type: in vivo, mice (C57/bl6/J); settings: single oral dose 20 mg/kg
Protocol: The pharmacokinetics of the compounds was assessed in mice after single dosing and oral administrations. Blood and liver exposure was measured via LC-MS.
The study design was as follows:
Animals: C57/bl6/J (Janvier) males Diet: standard rodent chow Dose: 20 mg/kg Animal handling: animals were withdrawn from food at least 12 h before administration Design: single dose oral administration, n=3 animals per group Sacrifice: at stated time point (4, 12 or 24 h) after administration Bioanalytics: LC-MS of liver and blood samples

[2] = target: T1, LXRα ligand-binding domain (LBD) (Homo sapiens, UniProt Q13133); assay: LXR Gal4 reporter transient transfection assay, mammalian two-hybrid, LBD-M2H Gal4α; assay type: cell-based; settings: HEK293 cells; inverse agonist unless *
T1 construct: expressed in transfected cells; host or cells: HEK293
T1 sequence (Q13133 155-447): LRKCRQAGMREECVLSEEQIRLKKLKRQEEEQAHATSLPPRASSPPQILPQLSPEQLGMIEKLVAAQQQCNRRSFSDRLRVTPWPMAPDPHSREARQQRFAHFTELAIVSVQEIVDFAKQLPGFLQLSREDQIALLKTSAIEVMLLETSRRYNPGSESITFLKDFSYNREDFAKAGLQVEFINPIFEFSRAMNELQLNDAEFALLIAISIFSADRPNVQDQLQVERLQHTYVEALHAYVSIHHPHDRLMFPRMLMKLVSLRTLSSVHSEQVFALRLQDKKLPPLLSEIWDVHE
Protocol: (§1) The tested compounds were usually dissolved, tested and stored as 20 mM stock solutions in DMSO. Since sulfonyl acetic acid derivatives tend to decarboxylate under these conditions, these stock solutions were prepared, tested and stored as 20 mM DMSO stock solutions containing 100 mM trifluoroacetic acid (5 equivalents). Sulfonyl acetic acid derivatives are shelf stable as solid at rt for long time as reported by Griesbrecht et al. (Synlett 2010:374) or Faucher et al. (J. Med. Chem. 2004; 47:18).
(§2) LXR Gal4 Reporter Transient Transfection Assays
(§3) LXRα and LXRβ activity status was determined via detection of interaction with coactivator and corepressor proteins in mammalian two-hybrid experiments (M2H). For this, via transient transfection the full length (FL) proteins of LXRα (amino acids 1-447; NP005684; SEQ ID NO:1) or LXRβ-(amino acids 1-461; NP009052; SEQ ID NO:2) or the ligand-binding domains (LBD) of LXRα (amino acids 155-447 SEQ ID NO:3) or LXR (amino acids 156-461; SEQ ID NO:4) were expressed from pCMV-AD (Stratagene) as fusions to the transcriptional activation domain of NFkB. As cofactors, domains of either the steroid receptor coactivator 1 (SRC1; amino acids 552-887; SEQ ID NO:5) or of the corepressor NCoR (amino acids 1906-2312; NP006302; SEQ ID NO:6) were expressed as fusions to the DNA binding domain of the yeast transcription factor GAL4 (from pCMV-BD; Stratagene). Interaction was monitored via activation of a coexpressed Firefly Luciferase Reporter gene under control of a promoter containing repetitive GAL4 response elements (vector pFRLuc; Stratagene). Transfection efficiency was controlled via cotransfection of constitutively active pRL-CMV Renilla reniformis luciferase reporter (Promega). HEK293 cells were grown in minimum essential medium (MEM) with 2 mM L-glutamine and Earle's balanced salt solution supplemented with 8.3% fetal bovine serum, 0.1 mM non-essential amino acids, 1 mM sodium pyruvate, at 37° C. in 5% CO2. 3.5×10^4 cells/well were plated in 96-well cell culture plates in growth medium supplemented with 8.3% fetal bovine serum for 16-20 h to—90% confluency. For transfection, medium was taken off and LXR and cofactor expressing plasmids as well as the reporter plasmids are added in 30 μL OPTIMEM/well including polyethylene-imine (PEI) as vehicle. Typical amounts of plasmids transfected/well: pCMV-AD-LXR (5 ng), pCMV-BD-cofactor (5 ng), pFR-Luc (100 ng), pRL-CMV (0.5 ng). Compound stocks were prepared in DMSO, prediluted in MEM to a total volume of 120 μL, and added 4 h after addition of the transfection mixture (final vehicle concentration not exceeding 0.2%). Cells were incubated for additional 16 h, lysed for 10 min in 1×Passive Lysis Buffer (Promega) and Firefly and Renilla luciferase activities were measured sequentially in the same cell extract using buffers containing D-luciferine and coelenterazine, respectively. Measurements of luminescence were done in a BMG-luminometer.

[3] = target: T2, GST-LXRβ ligand-binding domain (Homo sapiens, UniProt P55055, INS174Q); assay: TR-FRETβ activity assay (NCoA3 coactivator peptide recruitment); assay type: biochemical; settings: 1 μM 24(S)-25-epoxycholesterol as prestimulating agonist; inverse agonist unless *
T2 construct: amino acids 156-461; NP009052; made in house; host or cells: E. coli
T2 sequence (P55055 with tags, fused parts or gaps INS174Q limits assumed): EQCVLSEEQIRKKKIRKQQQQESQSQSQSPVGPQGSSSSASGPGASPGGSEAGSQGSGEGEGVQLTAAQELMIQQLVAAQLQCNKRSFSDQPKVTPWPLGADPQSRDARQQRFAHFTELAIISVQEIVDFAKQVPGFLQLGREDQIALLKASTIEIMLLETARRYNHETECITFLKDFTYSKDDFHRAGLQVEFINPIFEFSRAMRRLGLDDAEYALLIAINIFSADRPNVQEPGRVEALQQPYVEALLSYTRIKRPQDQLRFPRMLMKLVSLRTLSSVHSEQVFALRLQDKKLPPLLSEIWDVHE
Procedure, shortened: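 E. coli-expressed GST-LXRβ LBD (aa 156-461, 76 nM) with biotinylated NCoA3 peptide (400 nM), anti-GST-Tb cryptate donor and streptavidin-XL665 acceptor in 240 mM KCl, BSA, 0.002% Triton X-100. Equilibrated 1 h at 4° C; TR-FRET read at 615/665 nm, triplicates.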

[4] = target: T3, LXRβ ligand-binding domain (LBD) (Homo sapiens, UniProt P55055, INS174Q); assay: LXR Gal4 reporter transient transfection assay, mammalian two-hybrid, LBD-M2H Gal4β; assay type: cell-based; settings: HEK293 cells; inverse agonist unless *
T3 construct: or LXR (amino acids 156-461); expressed in transfected cells; host or cells: HEK293
T3 sequence (P55055 with tags, fused parts or gaps INS174Q limits assumed): T2 sequence (P55055 with tags, fused parts or gaps INS174Q limits assumed)
Protocol: as §1, §2, §3

[5] = male, C57/bl6/J, mouse, liver/blood, time point 4 h, read-out: liver/blood ratio

| Compound | Kp at 4 h [1, 5] | blood/plasma exposure ([1]; time point 4 h) [µM] | liver exposure ([1]; time point 4 h) [µM] | EC50 [2] [nM] | EC50 [3] [nM] | EC50 [4] [nM] | Kp at 12 h ([1]; male, C57/bl6/J, mouse, liver/blood, time point 12 h, read-out: liver/blood ratio) | blood/plasma exposure ([1]; time point 12 h) [µM] | liver exposure ([1]; time point 12 h) [µM] | FRETβ [3] |
| --- | --- | --- | --- | --- | --- | --- | --- | --- | --- | --- |
| COc1cc(-c2cccc(C(C)(C)C(=O)O)c2)ccc1CN(Cc1ccc(C(F)(F)F)o1)Cc1c(C)ccc2ccccc12 [22/11] | 4.8 | 0.57 | 2.75 | < 100 | 100 to 1000 | < 100 |  |  |  |  |
| Cc1ccc2ccccc2c1CN(Cc1ccc(-c2cccc(C(C)(C)C(=O)O)n2)cc1)Cc1ccc(C(F)(F)F)o1 [14/2] |  |  |  | 100 to 1000 | 1000 to 10000 | < 100 |  |  |  |  |
| Cc1cc(C)c(C(=O)N(Cc2ccc(-c3cccc(OCC(=O)O)c3)cc2)Cc2ccc(C(F)(F)F)o2)c(C)c1 [10/3] |  |  |  | 100 to 1000 | > 10000 | 100 to 1000 |  |  |  |  |
| COc1cc(-c2ccc3c(c2)C(C)(C)C(=O)OC3)ccc1CN(Cc1ccc(C(F)(F)F)o1)Cc1c(C)ccc2ccccc12 [7/9] |  |  |  | 1000 to 10000 | 1000 to 10000 | < 100 |  |  |  |  |
| COc1cc(-c2cccc(C(C)(C)C(=O)O)c2)ccc1CN(Cc1ccc(C(F)(F)F)o1)Cc1c(C)cc(C)cc1C [22/12] |  |  |  | 100 to 1000 | 100 to 1000 | < 100 |  |  |  |  |
| COc1cc(-c2cccc(C(C)(C)C(=O)O)c2)cnc1CN(Cc1ccc(C(F)(F)F)o1)Cc1c(C)ccc2ccccc12 [22/4] |  |  |  | 1000 to 10000 | 100 to 1000 | < 100 |  |  |  |  |
| Cc1cc(C)c(C(=O)N(Cc2ccc(-c3cccc(CCC(=O)O)c3)cc2)Cc2ccc(C(F)(F)F)o2)c(C)c1 [10/2] |  |  |  | 100 to 1000 | 1000 to 10000 | < 100 |  |  |  |  |
| Cc1ccc2ccccc2c1CN(Cc1ccc(-c2ccnc(C(C)(C)C(=O)O)c2)cc1)Cc1ccc(C(F)(F)F)o1 [14/3] |  |  |  | < 100 | 100 to 1000 | < 100 |  |  |  |  |
| Cc1cc(C)c(CN(Cc2ccc(C(F)(F)F)o2)Cc2ccc(-c3cccc(S(=O)(=O)CC(=O)O)c3)cc2Cl)c(C)c1 [15/3] |  |  |  | 1000 to 10000 | 1000 to 10000 | 100 to 1000 |  |  |  |  |
| Cc1ccc2ccccc2c1CN(Cc1ccc(-c2cc(C(C)(C)C(=O)O)ccn2)cc1)Cc1ccc(C(F)(F)F)o1 [14/1] |  |  |  | 100 to 1000 | 1000 to 10000 | < 100 |  |  |  |  |

Now from value to molecule:

| Kp at 4 h [1, 5] | blood/plasma exposure ([1]; time point 4 h) [µM] | liver exposure ([1]; time point 4 h) [µM] | EC50 [2] [nM] | EC50 [3] [nM] | EC50 [4] [nM] | Kp at 12 h ([1]; male, C57/bl6/J, mouse, liver/blood, time point 12 h, read-out: liver/blood ratio) | blood/plasma exposure ([1]; time point 12 h) [µM] | liver exposure ([1]; time point 12 h) [µM] | FRETβ [3] | Compound |
| --- | --- | --- | --- | --- | --- | --- | --- | --- | --- | --- |
| 51 | 0.83 | 42 | 1000 to 10000 | 1000 to 10000 | 100 to 1000 | 54 | 0.06 | 3.2 |  | Cc1cc(C)c(CN(Cc2ccc(-c3cccc(S(=O)(=O)CC(=O)O)c3)cc2)Cc2ccc(C(F)(F)F)o2)c(C)c1 [Example 1, 2-((4′-((((5-(Trifluoromethyl)furan-2-yl)methyl)(2,4,6-trimethylbenzyl)amino)methyl)-1,1′-biphenyl-3-yl)sulfonyl)acetic acid] |
| 9.7 | 1.22 | 11.8 | < 100 | 100 to 1000 | < 100 |  |  |  |  | Cc1ccc2ncccc2c1CN(Cc1ccc(-c2cccc(C(C)(C)C(=O)O)c2)cc1)Cc1ccc(C(F)(F)F)o1 [24/3] |
|  |  |  | 100 to 1000 | 1000 to 10000 | < 100 |  |  |  |  | Cc1ccc2ccccc2c1CN(Cc1ccc(-c2cncc(C(C)(C)C(=O)O)c2)cc1)Cc1ccc(C(F)(F)F)o1 [26/1] |
|  |  |  | < 100 | 100 to 1000 | < 100 |  |  |  |  | Cc1cc(C)c2ccccc2c1CN(Cc1ccc(-c2cccc(C(C)(C)C(=O)O)c2)cc1)Cc1ccc(C(F)(F)F)o1 [24/6] |
|  |  |  | 1000 to 10000 | 100 to 1000 | < 100 |  |  |  |  | COC(=O)CS(=O)(=O)c1cc(-c2ccc(CN(Cc3ccc(C(F)(F)F)o3)Cc3c(C)cc(C)cc3C)cc2)cc(F)c1CO [Example 13] |
|  |  |  | < 100 | 100 to 1000 | < 100 |  |  |  |  | CC(C)(C(=O)O)c1cccc(-c2ccc(CN(Cc3ccc(C(F)(F)F)o3)Cc3c(C(F)F)ccc4ccccc34)cc2)c1 [27/69] |
|  |  |  | 100 to 1000 | 1000 to 10000 | < 100 |  |  |  |  | Cc1ccc2cccnc2c1CN(Cc1ccc(-c2cccc(C(C)(C)C(=O)O)c2)cc1)Cc1ccc(C(F)(F)F)o1 [24/2] |
|  |  |  | 100 to 1000 | 1000 to 10000 | 100 to 1000 |  |  | 3.45 |  | Cc1cc(C)c(C(=O)N(Cc2ccc(-c3cccc(S(=O)(=O)CC(=O)O)c3)cc2)Cc2ccc(C(F)(F)F)o2)c(C)c1 [Example 4, 2-((4′-((2,4,6-Trimethyl-N-((5-(trifluoromethyl)furan-2-yl)methyl)benzamido)methyl)-1,1′-biphenyl-3-yl)sulfonyl)acetic acid] |
| 8 | 2.25 | 18 | < 100 | < 100 | < 100 |  |  |  |  | Cc1ccc(CN(Cc2ccc(-c3cccc(C(C)(C)C(=O)O)c3)cc2)Cc2ccc(C(F)(F)F)o2)c2ccccc12 [24/1] |
|  |  |  | < 100 | 100 to 1000 | < 100 |  |  |  |  | Cc1ncc2ccccc2c1CN(Cc1ccc(-c2cccc(C(C)(C)C(=O)O)c2)cc1)Cc1ccc(C(F)(F)F)o1 [24/4] |
|  |  |  | 100 to 1000 |  | < 100 |  |  |  | B* | CC(C)(C(=O)O)c1cccc(-c2ccc(CN(Cc3ccc(C(F)(F)F)o3)C(=O)C34CC5CC(CC(C5)C3)C4)cc2)c1 [27/56] |
|  |  |  | 100 to 1000 | 100 to 1000 | < 100 |  |  |  |  | CC(C)(C(=O)O)c1cccc(-c2ccc(CN(Cc3ccc(C(F)(F)F)o3)C(=O)c3cccn4nccc34)cc2)c1 [27/70] |
|  |  |  | 100 to 1000 |  | < 100 |  |  |  | B* | CC(C)(C(=O)O)c1cccc(-c2ccc(CN(Cc3ccc(C(F)(F)F)o3)Cc3cccc4nonc34)cc2)c1 [25/1] |
|  |  |  | < 100 | < 100 | < 100 |  |  |  |  | CC(C)(C(=O)O)c1cccc(-c2ccc(CN(Cc3ccc(C(F)(F)F)o3)Cc3c(OC(F)F)ccc4ccccc34)cc2)c1 [27/68] |
|  |  |  | 100 to 1000 | 1000 to 10000 | < 100 |  |  |  |  | Cc1ccc2ccccc2c1CN(Cc1ccc(-c2cccc(CC(C)(C)C(=O)O)c2)cc1)Cc1ccc(C(F)(F)F)o1 [26/2] |
